In PubChem BioAssay AID2305 (GlaxoSmithKline (GSK), 2010):

The compounds below were run on P. falciparum 3D7 growth, pLDH absorbance (assay: P. falciparum 3D7 growth inhibition, dose response, strain 3D7 (AID 2305)).

SMILES | IC50
CN(C)CCN1CCN(CCCN2c3ccccc3Sc3ccc(C(F)(F)F)cc32)CC1 | 760 nM
COc1cc(C=NNc2cc(C)nc3c(OC)cccc23)cc(OC)c1OC | 890 nM
Cn1cnc(CCNC(=O)c2ccc(-c3cccc(-c4nc5ccc(C(F)(F)F)cc5[nH]4)c3)cc2)c1 | 730 nM
Cc1cc(OCCCN2CCCCC2)ccc1NC(=O)COc1ccc(Cl)cc1C(=O)c1cc(Cl)cc(C#N)c1 | 890 nM
Cc1[nH]c2ccccc2c1C1CCN(CC2CCC(NC(=O)/C=C/c3ccc(Cl)c(Cl)c3)CC2)CC1 (stereo not drawn) | 820 nM
Nc1nc(N)c2c(ccc3c2ccn3CC2CC2)n1 | 210 nM
CCOC(=O)CCCOc1cc(Cc2cnc(N)nc2N)cc(OC)c1OC | 240 nM
CN(C)Cc1cccc2[nH]c(-c3csc(Cc4cc(Cl)ccc4OCc4ccccc4)n3)nc12 | 1120 nM
Cc1cc(NC(=O)Nc2ccc(N(C)C)cc2)c2cc(Cl)ccc2n1 | 860 nM
CC(C)c1cccc(C(C)C)c1NC(=O)NNC(=O)c1ccc(CCN2CCC(c3nc(COCC(F)(F)F)c(-c4ccc(F)cc4)o3)CC2)cc1 | 1090 nM
Cn1c(N)c(N=O)c(=O)[nH]c1=O | 180 nM
CCCCCCC(C)c1cc(O)c2c(c1)OC(C)(C)C=C2c1ccncc1 (stereo not drawn) | 730 nM
CCOCCCNc1ncc(-c2ccsc2)c(-c2nc(C)cs2)n1 | 270 nM
COc1ccc(N2CCN(CCCCNCc3ccc(NC(=O)c4cc(Cl)cc(Cl)c4)cc3)CC2)c(OC)c1 | 250 nM
CN(C)c1nc2cc(-n3cnc4cc(-c5ccc(Cl)cc5)sc4c3=O)ccc2n1CCCN1CCCC1 | 850 nM
COc1ccc2nccc([C@@H](O)CN3CCC(NC(=O)C(c4ccccc4C)N4CCC(Cc5ccccc5)CC4)CC3)c2c1 (stereo partly drawn) | 260 nM
COc1ccc(C=NNc2cc(C)nc3ccccc23)c2ccccc12 | 750 nM
CCNc1cc(C(=O)N[C@@H](Cc2ccccc2)[C@H](O)CNC2(Cc3cccc(Cl)c3)CCC2)cc(N2CCCCS2(=O)=O)c1 | 1180 nM
O=C(N[C@H]1CCN(Cc2ccc(OCCCN3CCCCC3)cc2)C1)c1ccc2ccccc2c1 | 760 nM
CC(C)(C)Oc1ccc(NC(=O)c2ccccc2O)cc1 | 1010 nM
COc1ccc(CN2CCCC(Nc3ccc(F)c(F)c3)C2)c(O)c1 (stereo not drawn) | 1090 nM
COc1ccc(Nc2nccc(NCC(O)c3ccc(C(F)(F)F)cc3)n2)cc1 (stereo not drawn) | 550 nM
CCN(CC)CCOc1ccc(N(Cc2ccc(C(C)(C)C)cc2)C(=O)c2ccc(Cc3ccccc3)cc2)cc1OC | 770 nM
O=C(Cc1cnc[nH]1)Nc1cccc(-c2ccc(-c3nc4ccc(F)cc4[nH]3)s2)c1 | 660 nM

SMILES | IC50
Cc1cccc(CNc2nc(C)cc(NCCC(=O)NCc3cccc(F)c3)n2)c1 | 850 nM
O=C(c1ccc(-c2ccc(-c3nc4ccc(C(F)(F)F)cc4[nH]3)s2)cc1)N1CCN(CCc2ccccc2)CC1 | 590 nM
CCc1cn(CCc2ccccc2)c2ccc(C(=O)N[C@@H](Cc3ccccc3)[C@H](O)CNC(C)(C)CCCC(C)C)cc12 | 220 nM
CN1C(=C2SC(=Nc3ccc4ncccc4c3)N(Cc3ccccc3)C2=O)Sc2ccc(Cl)cc21 | 1060 nM
CC(Cc1ccc(OCCN2CCN(c3cccc(C(F)(F)F)c3)CC2)cc1)NCC(O)c1cccc(C(F)(F)F)c1 (stereo not drawn) | 180 nM
O=S(=O)(Nc1ccc(CCN2CCC(N3CCCCC3)CC2)cc1)c1ccccc1C(F)(F)F | 1020 nM
Cc1cc(N(C)C)nc(Nc2ccc(NC(=O)c3ccccc3F)cc2)n1 | 1160 nM
CCN(CCCN1CCCCC1)c1cc(C)nc(Nc2ccc(F)c(C(F)(F)F)c2)n1 | 150 nM
CCCNCc1ccc(-c2ccc(CN(CCOC)C(=O)/C=C/c3ccccc3C)cc2)nc1 | 900 nM
CN1CCC(C(=O)N(Cc2ccc(-c3ccc(CNCCc4ccc(S(C)(=O)=O)cc4)cn3)cc2)Cc2ccc3c(c2)OCO3)CC1 | 1000 nM
O=C(Nc1cccc(-c2ccc(-c3nc4ccc(F)cc4[nH]3)s2)c1)c1cccnc1 | 610 nM
CCCCCCCNCCNc1cc(C)nc2ccccc12 | 390 nM
Cc1cccc2[nH]c(-c3ccc(-c4ccc(CNCc5ccc(S(C)(=O)=O)cc5)cc4)cc3)nc12 | 750 nM
O=C(N[C@@H](Cc1ccccc1)C(=O)NC1CCCCC1)c1ccc(O)c(-c2cccc(C(F)(F)F)c2)c1 | 810 nM
O=C(NCCN1CCOCC1)c1ccc(O)c(-c2cccc(C(F)(F)F)c2)c1 | 750 nM
CC(Oc1c(C2CCN(CCCCNC(=O)c3ccc(-c4ccc(C#N)cc4)cc3)CC2)ccc2c1CCCC2)C(N)=O (stereo not drawn) | 680 nM
Cc1ccc2c(c1)NC[C@@]21CCN(C[C@@H](O)C2CCN(c3ccnc(Cl)c3)CC2)C[C@@H]1C | 940 nM
Oc1cccc2c1CC(NCc1ccccc1)CC2 (stereo not drawn) | 890 nM
CN(C)c1ccc(CN2CCC(NC(=O)c3ccc(-c4cccc(F)c4)s3)CC2)cc1 | 1490 nM
Fc1ccc2nc(-c3ccc(-c4ccc(CNCCc5ccncc5)cc4)s3)[nH]c2c1 | 140 nM
CC(C)CC(=O)N1CCNC[C@@H]1C(=O)NC1CC1 | 1090 nM
O=C(/C=C/c1ccc(Cl)c(Cl)c1)NCCCCCN1CCC(c2c[nH]c3cc(O)ccc23)CC1 | 750 nM
O=C(Nc1ccc2nc3n(c(=O)c2c1)CCCCC3)C(=O)N1CCC(Cc2ccccc2)CC1 | 760 nM
COc1ccc(Cn2c(Nc3cccc(C(F)(F)F)c3)nc3cc(C(=O)NC(C)C)cnc32)cc1Cl | 970 nM
